Values quoted from earlier work in patent publication US20200245614A1, “AGROCHEMICAL EMULSIFIABLE CONCENTRATE COMPOSITION” (priority 2017, published 2020).

Conditions: n-octanol/water

Molecule	LogPow value
CCCCOC(=O)OCCCC [Composition B-3, Di-n-butyl carbonate]	3.47
CC(C)COC(=O)CCCCC(=O)OCC(C)C [Composition B-4, Diisobutyl adipate]	3.70
CCCCCCCCCCCC(=O)OC [Composition B-5, Methyl laurate]	5.41
COCCOCCO [Composition C-1, Diethylene glycol monomethyl ether]	−1.18
OC1CCCCC1 [Composition C-4, Cyclohexanol]	1.2
O=C1CCCCC1 [Composition C-5, Cyclohexanone]	0.86
CCCCOCCOCCO [Composition C-6, Butyl diglycol]	0.56
COCC(C)O (stereo not shown) [Composition C-9, Propylene glycol monomethyl ether]	−0.342
CN1CCCC1=O [Composition C-10, N-methyl-2-pyrrolidone]	−0.38
COC(C)COC(C)CO (stereo not shown) [Composition C-11, Dipropylene glycol methyl ether]	−0.46
CC1COC(=O)O1 (stereo not shown) [Composition C-12, Propylene carbonate]	−0.5
O=C1CCCO1 [Composition C-13, γ-Butyrolactone]	−0.566
CCCCN1CCCC1=O [Composition C-16, N-Butylpyrrolidone]	1.27
COCCOCCOCCO [Composition C-17, Triethylene glycol monomethyl ether]	−1.12
CC(O)COc1ccccc1 (stereo not shown) [Composition C-19, Phenoxypropanol]	1.51
OCCOCc1ccccc1 [Composition C-20, Benzyl glycol]	1.11
COC(=O)C(C)CCC(=O)N(C)C (stereo not shown) [Composition C-21, 5-(Dimethylamino)-2-methyl-5-oxopentanoic acid methyl ester]	0.39
CCCCCCCC/C=C\CCCCCCCC(=O)OC [Composition C-22, Methyl oleate]	7.45
CCCCCCCCO [Composition C-24, Octanol]	3
CCCCOC(C)=O [Composition C-26, Butyl acetate]	1.82
CCCCOCCOCCOCCCC [Composition C-27, Dibutyl diglycol]	1.92
CCCCC(CC)COCCOCCO (stereo not shown) [Composition C-28, 2-ethylhexyl diglycol]	2
CC(C)=O [acetone]	−0.24
CO [methanol]	−0.82
CCC(C)=O [methyl ethyl ketone]	0.29
CCCCCO [pentanol]	1.51
Xylene [Composition B-2]	3.15

Same assay, conditions: n-octanol/water; listed as gamma-butyl lactone

Molecule	LogPow value
O=C1CCCO1 [Composition C-13, γ-Butyrolactone]	−0.57
